One may read the EC50 as the concentration needed to bring the measured effect to its halfway point.

In one assay the target is T1, 5-HT2C receptor (Homo sapiens, UniProt P28335).
T1 construct: expressed in transfected cells; host or cells: HEK293T
T1 sequence (P28335 33-458): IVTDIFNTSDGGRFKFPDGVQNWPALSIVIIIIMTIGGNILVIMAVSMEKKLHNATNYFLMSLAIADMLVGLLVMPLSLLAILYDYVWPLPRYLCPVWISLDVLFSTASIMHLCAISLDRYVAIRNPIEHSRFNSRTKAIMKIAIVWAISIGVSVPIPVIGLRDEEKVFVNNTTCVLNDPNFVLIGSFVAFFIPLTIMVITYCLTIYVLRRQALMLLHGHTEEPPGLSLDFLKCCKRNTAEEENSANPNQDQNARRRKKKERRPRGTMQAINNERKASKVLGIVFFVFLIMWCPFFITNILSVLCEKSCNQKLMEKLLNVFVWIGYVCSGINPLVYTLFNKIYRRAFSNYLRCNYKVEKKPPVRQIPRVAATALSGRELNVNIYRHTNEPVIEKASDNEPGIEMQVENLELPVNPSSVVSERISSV
Put plainly: cell-based.

The target in a further assay is T2, 5-HT2A receptor (Homo sapiens, UniProt P28223).
T2 construct: expressed in transfected cells; host or cells: HEK293T
T2 sequence (P28223 whole entry): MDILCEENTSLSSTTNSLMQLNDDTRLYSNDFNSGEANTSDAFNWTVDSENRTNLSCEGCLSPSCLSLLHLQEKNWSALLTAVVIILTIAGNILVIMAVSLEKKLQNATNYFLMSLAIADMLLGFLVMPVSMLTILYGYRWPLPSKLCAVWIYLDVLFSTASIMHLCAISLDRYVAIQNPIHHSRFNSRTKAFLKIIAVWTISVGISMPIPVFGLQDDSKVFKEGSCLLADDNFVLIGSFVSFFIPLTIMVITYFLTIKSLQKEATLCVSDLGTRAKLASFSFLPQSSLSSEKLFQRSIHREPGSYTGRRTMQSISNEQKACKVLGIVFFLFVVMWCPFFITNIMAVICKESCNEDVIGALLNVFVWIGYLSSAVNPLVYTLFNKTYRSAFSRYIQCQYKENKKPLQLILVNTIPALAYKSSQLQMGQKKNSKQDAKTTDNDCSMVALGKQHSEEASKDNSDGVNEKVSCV
Kind of assay: Serotonin receptor 5-HT2 functional assay (Gq dissociation BRET or Gq-dependent calcium flux), 5-HT2A. The class given is cell-based. Conditions: for 5-HT2A BRET Eff %: efficacy relative to 4-hydroxytryptamine. (BRET reads energy transfer from a luciferase to a nearby fluorophore.)

The target in the next assay is T3, 5-HT2B receptor (Homo sapiens, UniProt P41595).
T3 construct: expressed in transfected cells; host or cells: HEK293T
T3 sequence (P41595 whole entry): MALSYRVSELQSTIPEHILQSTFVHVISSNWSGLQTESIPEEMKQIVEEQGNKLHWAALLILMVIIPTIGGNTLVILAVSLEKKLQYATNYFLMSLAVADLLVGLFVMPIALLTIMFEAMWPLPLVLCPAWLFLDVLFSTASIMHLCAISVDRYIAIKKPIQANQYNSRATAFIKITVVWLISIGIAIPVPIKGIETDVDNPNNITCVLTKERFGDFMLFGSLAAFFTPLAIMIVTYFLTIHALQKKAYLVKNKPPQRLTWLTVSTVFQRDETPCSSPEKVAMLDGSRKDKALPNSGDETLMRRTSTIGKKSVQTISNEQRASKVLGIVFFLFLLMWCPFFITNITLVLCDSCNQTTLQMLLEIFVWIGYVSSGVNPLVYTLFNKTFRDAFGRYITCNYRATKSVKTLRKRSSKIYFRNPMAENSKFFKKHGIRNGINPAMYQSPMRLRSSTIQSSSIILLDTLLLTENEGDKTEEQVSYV
Kind of assay: Serotonin receptor 5-HT2 functional assay (Gq dissociation BRET or Gq-dependent calcium flux), 5-HT2B. It counts as cell-based. The note with it: Table 4, at least three replicate trials; for 5-HT2B BRET Eff %: efficacy relative to 4-hydroxytryptamine; for EC50 / 5-HT2B BRET EC50 (nM): relative to 4-hydroxytryptamine.

[1] abbreviates: Table 4, at least three replicate trials.
Where [2] appears, read: Table 4, relative to 4-hydroxytryptamine, at least three replicate trials, read-out: 5-HT2A BRET EC50.
Where [3] appears, read: Table 4, efficacy relative to 4-hydroxytryptamine, at least three replicate trials.
Where [4] appears, read: Table 4, relative to 4-hydroxytryptamine, at least three replicate trials, read-out: 5-HT2C BRET EC50.

Where two headings read alike, the source gives them in different places.

`NCCc1c[nH]c2cccc(O)c12` [4-hydroxytryptamine, reference compound]: the “5-HT2C BRET Eff %” value at 5-HT2C receptor is on record as 99%. Besides, the EC50 at 5-HT2C receptor was 0.35 nM; on 5-HT2A receptor (setting [2]) it was 2.9 nM; on 5-HT2B receptor (read-out: 5-HT2B BRET EC50) it was 0.8 nM. On 5-HT2A receptor (setting [1]), the “5-HT2A BRET Eff %” value is reported as 100%. At 5-HT2B receptor, the “5-HT2B BRET Eff %” value was 100%.

With `Cc1cccc2c(CCN(C)C)c[nH]c12` [7,N,N-TMT], the “5-HT2C BRET Eff %” value on 5-HT2C receptor (setting [3]) was 79%. The values for the EC50 at 5-HT2C receptor (setting [4]), at 5-HT2A receptor and on 5-HT2B receptor (5-HT2B BRET EC50 (nM)) were 11.7 nM, 232 nM and 74 nM, respectively. On 5-HT2A receptor (setting [1]), the “5-HT2A BRET Eff %” value is given as 80%. In addition, the “5-HT2B BRET Eff %” value on 5-HT2B receptor was determined as 36%.

For `Cc1ccc(O)c2c(CCN(C)C)c[nH]c12` [Compound 1, 3-[2-(Dimethylamino)ethyl]-7-methylindol-4-ol], on 5-HT2C receptor, the “5-HT2C BRET Eff %” value is 79% and the EC50 turned out to be 6.9 nM. Besides, the EC50 at 5-HT2A receptor was found to be 66 nM. The “5-HT2A BRET Eff %” value at 5-HT2A receptor (setting [1]) stood at 72%. Further, on 5-HT2B receptor, the “5-HT2B BRET Eff %” value was “inactive” and the “5-HT2B BRET EC50 (nM)” value is “inactive”.

Regarding `CN(C)CCc1c[nH]c2c(CCO)ccc(O)c12` [Compound 7, 3-[2-(Dimethylamino)ethyl]-7-(2-hydroxyethyl)indol-4-ol], on 5-HT2C receptor (setting [3]), the “5-HT2C BRET Eff %” value was determined as 76%. Besides, the EC50 on 5-HT2C receptor (setting [4]) is 5.6 nM. The “5-HT2A BRET Eff %” value at 5-HT2A receptor (setting [1]) is listed as 81%. Moreover, on 5-HT2A receptor (setting [2]), the EC50 came out at 75 nM. Further, on 5-HT2B receptor, the “5-HT2B BRET Eff %” value was “inactive” and the “5-HT2B BRET EC50 (nM)” value is “inactive”.

In the case of `CN(C)CCc1c[nH]c2c(CCF)ccc(O)c12` [Compound 8, 3-[2-(Dimethylamino)ethyl]-7-(2-fluoroethyl)indol-4-ol], at 5-HT2C receptor, the “5-HT2C BRET Eff %” value is given as 56% and the EC50 worked out at 3930 nM. Also, the “5-HT2A BRET Eff %” value at 5-HT2A receptor (setting [1]) was “inactive”. For the same molecule, the “5-HT2A BRET EC50 (nM)” value at 5-HT2A receptor (Table 4, relative to 4-hydroxytryptamine, at least three replicate trials) was “inactive”. On 5-HT2B receptor, the “5-HT2B BRET Eff %” value is “inactive” and the “5-HT2B BRET EC50 (nM)” value was “inactive”.

As to `CCc1ccc(O)c2c(CCN(C)C)c[nH]c12` [Compound 9, 3-[2-(Dimethylamino)ethyl]-7-ethylindol-4-ol], at 5-HT2C receptor, the “5-HT2C BRET Eff %” value was determined as 67% and the EC50 was 28 nM. In addition, at 5-HT2A receptor, the EC50 came to 154 nM. Also, the “5-HT2A BRET Eff %” value at 5-HT2A receptor (setting [1]) is listed as 78%. Further, on 5-HT2B receptor, the “5-HT2B BRET Eff %” value is “inactive” and the “5-HT2B BRET EC50 (nM)” value is “inactive”.

Take `CC(C)c1ccc(O)c2c(CCN(C)C)c[nH]c12` [Compound 10, 3-[2-(Dimethylamino)ethyl]-7-isopropylindol-4-ol]: at 5-HT2C receptor, the “5-HT2C BRET Eff %” value was 60% and the EC50 was 34 nM. In addition, the EC50 on 5-HT2A receptor worked out at 1070 nM. Also, on 5-HT2A receptor (setting [1]), the “5-HT2A BRET Eff %” value is 40%. Moreover, at 5-HT2B receptor, the “5-HT2B BRET Eff %” value was “inactive” and the “5-HT2B BRET EC50 (nM)” value is “inactive”.

As to `CC(C)c1ccc(O)c2c(CCN(C)C)cn(C)c12` [Compound 11, 3-[2-(Dimethylamino)ethyl]-7-isopropyl-1-methylindol-4-ol], on 5-HT2C receptor, the “5-HT2C BRET Eff %” value was determined as 88% and a half-maximal response (EC50) required 22 nM. In addition, the EC50 on 5-HT2A receptor was 1160 nM. The “5-HT2A BRET Eff %” value on 5-HT2A receptor (setting [1]) came to 66%. Also, at 5-HT2B receptor, the “5-HT2B BRET Eff %” value was “inactive” and the “5-HT2B BRET EC50 (nM)” value was “inactive”.

Regarding `CCN(C)CCc1c[nH]c2c(C)ccc(O)c12` [Compound 14], on 5-HT2C receptor, the “5-HT2C BRET Eff %” value is on record as 108% and it took 4.2 nM to reach a half-maximal effect (EC50). Moreover, the EC50 at 5-HT2A receptor worked out at 82 nM. The “5-HT2A BRET Eff %” value on 5-HT2A receptor (setting [1]) worked out at 63%. Moreover, on 5-HT2B receptor, the “5-HT2B BRET Eff %” value is “inactive” and the “5-HT2B BRET EC50 (nM)” value was “inactive”.

For `Cc1ccc(O)c2c(CCN(C)C(C)C)c[nH]c12` [Compound 16, 3-[2-[Isopropyl(methyl)amino]ethyl]-7-methylindol-4-ol], on 5-HT2C receptor, the “5-HT2C BRET Eff %” value is given as 103% and the midpoint of the response, the EC50, lay at 53 nM. The EC50 on 5-HT2A receptor turned out to be 150 nM. In addition, the “5-HT2A BRET Eff %” value at 5-HT2A receptor (setting [1]) came out at 77%. Besides, at 5-HT2B receptor, the “5-HT2B BRET Eff %” value is “inactive” and the “5-HT2B BRET EC50 (nM)” value was “inactive”.

Consider `Cc1ccc(O)c2c(CCN(C)C3CC3)c[nH]c12` [Compound 17], for which, on 5-HT2C receptor, the “5-HT2C BRET Eff %” value is recorded as 111% and a half-maximal response (EC50) required 3.2 nM. For the same molecule, the EC50 at 5-HT2A receptor stood at 12.9 nM. Besides, the “5-HT2A BRET Eff %” value on 5-HT2A receptor (setting [1]) is 54%. For the same molecule, on 5-HT2B receptor, the “5-HT2B BRET Eff %” value is “inactive” and the “5-HT2B BRET EC50 (nM)” value was “inactive”.

Turning to `Cc1ccc(OP(=O)(O)O)c2c(CCN(C)C)c[nH]c12` [Compound 24], at 5-HT2C receptor, the “5-HT2C BRET Eff %” value worked out at 69% and the EC50 turned out to be 370 nM. Further, at 5-HT2A receptor, the EC50 came out at 1150 nM. Further, the “5-HT2A BRET Eff %” value at 5-HT2A receptor (setting [1]) is listed as 69%. Besides, at 5-HT2B receptor, the “5-HT2B BRET Eff %” value was “inactive” and the “5-HT2B BRET EC50 (nM)” value was “inactive”.

As to `COc1ccc(C)c2[nH]cc(CCN(C)C)c12` [Compound 26, [2-(4-Methoxy-7-methylindol-3-yl)ethyl]dimethylamine], at 5-HT2C receptor, the “5-HT2C BRET Eff %” value is listed as 113% and the EC50 turned out to be 3.5 nM. Further, the EC50 at 5-HT2A receptor came to 95 nM. Also, the “5-HT2A BRET Eff %” value on 5-HT2A receptor (setting [1]) is given as 68%. For the same molecule, on 5-HT2B receptor, the “5-HT2B BRET Eff %” value is “inactive” and the “5-HT2B BRET EC50 (nM)” value was “inactive”.

Take `Cc1cc(F)c(O)c2c(CCN(C)C)c[nH]c12` [Compound 30]: at 5-HT2A receptor (setting [1]), the “5-HT2A BRET Eff %” value came to 64%. On 5-HT2B receptor, the “5-HT2B BRET Eff %” value is on record as 8%.

In the case of `Cc1c(F)cc(O)c2c(CCN(C)C)c[nH]c12` [Compound 33, 3-[2-(Dimethylamino)ethyl]-6-fluoro-7-methylindol-4-ol], on 5-HT2C receptor, the “5-HT2C BRET Eff %” value turned out to be 102% and the response was half-maximal at 1.4 nM (EC50). Also, the EC50 at 5-HT2A receptor was 20 nM. For the same molecule, the “5-HT2A BRET Eff %” value at 5-HT2A receptor (setting [1]) came out at 78%. Moreover, on 5-HT2B receptor, the “5-HT2B BRET Eff %” value was “inactive” and the “5-HT2B BRET EC50 (nM)” value is “inactive”.

With `COc1cc(F)c(C)c2[nH]cc(CCN(C)C)c12` [Compound 34, [2-(6-Fluoro-4-methoxy-7-methylindol-3-yl)ethyl]dimethylamine], on 5-HT2C receptor, the “5-HT2C BRET Eff %” value was found to be 94% and the EC50 came to 1.8 nM. At 5-HT2A receptor, the EC50 is 16.9 nM. For the same molecule, the “5-HT2A BRET Eff %” value at 5-HT2A receptor (setting [1]) amounted to 84%. Moreover, at 5-HT2B receptor, the “5-HT2B BRET Eff %” value is “inactive” and the “5-HT2B BRET EC50 (nM)” value is “inactive”.

`CN(C)CCc1c[nH]c2cc(F)cc(O)c12` [Compound 36, 3-[2-(Dimethylamino)ethyl]-6-fluoroindol-4-ol]: at 5-HT2C receptor, the “5-HT2C BRET Eff %” value was found to be 93%. The EC50 on 5-HT2C receptor was determined as 1.7 nM; at 5-HT2A receptor, 2.9 nM; at 5-HT2B receptor (5-HT2B BRET EC50 (nM)), 4.2 nM. Also, the “5-HT2A BRET Eff %” value at 5-HT2A receptor (setting [1]) is on record as 92%. Besides, the “5-HT2B BRET Eff %” value on 5-HT2B receptor is reported as 62%.

For the molecule `Cc1cc(O)c2c(CCN(C)C)c[nH]c2c1` [Compound 37, 3-[2-(Dimethylamino)ethyl]-6-methylindol-4-ol], the “5-HT2C BRET Eff %” value on 5-HT2C receptor was found to be 95%. Besides, the EC50 on 5-HT2C receptor stood at 1.5 nM; on 5-HT2A receptor, 59 nM; at 5-HT2B receptor (5-HT2B BRET EC50 (nM)) it was 189 nM. The “5-HT2A BRET Eff %” value at 5-HT2A receptor (setting [1]) amounted to 88%. Further, the “5-HT2B BRET Eff %” value on 5-HT2B receptor worked out at 41%.

Regarding `CN(C)CCc1c[nH]c2cccc(O)c12` [psilocin, reference compound], at 5-HT2A receptor (setting [1]), the “5-HT2A BRET Eff %” value is listed as 82%. Moreover, the “5-HT2B BRET Eff %” value on 5-HT2B receptor is 63%.

For the origin of these results see US20250059217A1, “HETEROCYCLIC COMPOUNDS AND METHODS OF PREPARATION THEREOF” (priority 2021, published 2025).
